Experimental findings from PubChem BioAssay (NCI) are described below.

Some test systems named below: DU-145 prostate; MOLT-4 leukemia; SW-620 colon; SF-268 CNS; K-562 leukemia; TK-10 renal; RXF 393 renal; U251 CNS; NCI-H460 lung; HOP-92 NSCLC.
Experiment in all cases: NCI-60 cell line screen, 48 h

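Where inhibition never reached the appropriate level, the endpoint shown equals the highest concentration tested. Otherwise, values were interpolated linearly from a five-concentration, 48-hour dose response in 96-well plates. The concentration for 50% growth inhibition is given as GI50. TGI denotes the concentration required for complete inhibition of growth.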 Bounds are passed on as bounds.

Consider `CN(C)/[N+]([O-])=N/Oc1cc(Nc2cccc(C(=O)O)c2)c([N+](=O)[O-])cc1[N+](=O)[O-]`, for which the GI50 with DU-145 prostate is > 100 µM; with MOLT-4 leukemia, 61.4 µM; with SW-620 colon, > 100 µM; in the test with SF-268 CNS, 30 µM; with K-562 leukemia, 61.6 µM; in the test on TK-10 renal it was > 100 µM. Further, the GI50 in the test with RXF 393 renal is > 100 µM; in the test on U251 CNS, 35.3 µM; in the test on NCI-H460 lung it was > 100 µM. Further, the TGI was > 100 µM in the test on DU-145 prostate; > 100 µM in the test with MOLT-4 leukemia; > 100 µM with SW-620 colon; 78.5 µM in the test with SF-268 CNS; > 100 µM with K-562 leukemia; > 100 µM in the test on TK-10 renal. Also, the TGI with RXF 393 renal, in the test on U251 CNS and in the test on NCI-H460 lung was > 100 µM each time.
As to `COc1cccc(N2C(=O)c3c(c4[nH]c5ccccc5c4c4ccc(C(C)(C)C)cc34)C2=O)c1`, the TGI with MOLT-4 leukemia, in the test on SW-620 colon, with SF-268 CNS, with K-562 leukemia, in the test with HOP-92 NSCLC and in the test with TK-10 renal was > 100 µM in each case. In addition, the TGI in the test on RXF 393 renal, with U251 CNS and in the test with NCI-H460 lung was > 100 µM throughout.
For `CC[C@@H]1C[C@@H]2CN3CCc4c([nH]c5ccc(OC)cc45)C(COC(=O)c4ccc(OC)c(OC)c4)(C2)C13`, the TGI in the test with MOLT-4 leukemia was 62.3 µM; in the test with SW-620 colon, 40.1 µM; in the test with SF-268 CNS, > 100 µM; in the test with K-562 leukemia, 43 µM; in the test on HOP-92 NSCLC, 32.2 µM; in the test on TK-10 renal, 97.2 µM. The figures for the TGI in the test with RXF 393 renal, in the test with U251 CNS and in the test with NCI-H460 lung were 62.6 µM, 43.6 µM and 84.1 µM, respectively.
Turning to `CNc1ccccc1C(=O)N/N=C/C=C/c1ccccc1`, the GI50 in the test on DU-145 prostate is 3.47 µM; in the test on MOLT-4 leukemia, 1.86 µM; in the test with SW-620 colon, 0.454 µM; with SF-268 CNS, 7.23 µM; with K-562 leukemia, 0.44 µM; with HOP-92 NSCLC it was 4.13 µM. Also, the GI50 in the test on TK-10 renal is 3.33 µM; in the test with U251 CNS, 1.19 µM; in the test with NCI-H460 lung it was 0.503 µM. The TGI in the test on DU-145 prostate was > 57.6 µM; in the test with MOLT-4 leukemia it was > 100 µM; in the test with SW-620 colon it was > 100 µM; in the test on SF-268 CNS, > 100 µM; in the test with K-562 leukemia, > 100 µM; with HOP-92 NSCLC it was 57.9 µM. Besides, the TGI in the test on TK-10 renal was > 100 µM; in the test on U251 CNS it was 34.8 µM; with NCI-H460 lung, > 41.9 µM.
As for `CS(=O)(=O)c1ccc(Oc2cc(F)cc(C#N)c2)c2c1[C@H](O)[C@H](F)[C@@H]2F`, the GI50 in the test with DU-145 prostate, in the test with MOLT-4 leukemia, with SW-620 colon, in the test with SF-268 CNS, in the test on K-562 leukemia and in the test with TK-10 renal was > 100 µM each time. Also, the GI50 in the test with RXF 393 renal, with U251 CNS and in the test with NCI-H460 lung was > 100 µM each time. Further, the TGI in the test with DU-145 prostate, in the test with MOLT-4 leukemia, with SW-620 colon, in the test with SF-268 CNS, in the test on K-562 leukemia and with TK-10 renal was > 100 µM throughout. The TGI in the test with RXF 393 renal, with U251 CNS and with NCI-H460 lung was > 100 µM in each case.
On to `Cc1ccc(NC(=O)c2[nH]c(=S)nc(N)c2-c2ccccc2C)cc1C`, for which the TGI in the test on MOLT-4 leukemia, in the test with SW-620 colon, with SF-268 CNS, with K-562 leukemia, in the test on HOP-92 NSCLC and in the test on TK-10 renal was > 100 µM throughout. Also, the TGI with RXF 393 renal, in the test with U251 CNS and in the test with NCI-H460 lung was > 100 µM in each case.
With `CN(C)CCNC(=O)c1ccc(Nc2nc3ccccc3c3occc23)cc1`, the GI50 is 6.94 µM with DU-145 prostate; 2.75 µM in the test on MOLT-4 leukemia; 5.96 µM in the test on SW-620 colon; 63.7 µM in the test on SF-268 CNS; 4.29 µM with K-562 leukemia; 1.8 µM with HOP-92 NSCLC. Besides, the GI50 is 1.06 µM in the test with TK-10 renal, 2.45 µM in the test with U251 CNS and 28.5 µM in the test with NCI-H460 lung. Also, the TGI was 20.7 µM in the test with DU-145 prostate; 5.17 µM in the test on MOLT-4 leukemia; 25.8 µM with SW-620 colon; > 100 µM in the test on SF-268 CNS; 17.1 µM with K-562 leukemia; 9.84 µM with HOP-92 NSCLC. In addition, the TGI in the test with TK-10 renal was 2.54 µM; in the test on U251 CNS, 6.35 µM; with NCI-H460 lung, > 100 µM.
On to `CN(N=O)C(=O)Nc1c[nH]c(=O)[nH]c1=O`, for which the TGI in the test on DU-145 prostate, in the test with MOLT-4 leukemia, in the test with SW-620 colon, in the test on K-562 leukemia, in the test on HOP-92 NSCLC and in the test on TK-10 renal was > 100 µM throughout. Also, in the test on U251 CNS, the TGI was > 100 µM.
As for `O=C1c2ccccc2-c2c1c1ccccc1c(=O)n2CCCNCCCn1c2c(c3ccccc3c1=O)C(=O)c1ccccc1-2`, the GI50 in the test on DU-145 prostate is 1.49 µM; in the test with MOLT-4 leukemia it was 0.398 µM; in the test on SW-620 colon it was 0.852 µM; in the test with SF-268 CNS, 7.13 µM; in the test on K-562 leukemia it was 4.07 µM; in the test on TK-10 renal it was 5.34 µM. In addition, the values for the GI50 in the test on RXF 393 renal, in the test on U251 CNS and in the test on NCI-H460 lung were 4.07 µM, 1.12 µM and 2.31 µM, respectively. The TGI in the test on DU-145 prostate is 5.85 µM; in the test on SW-620 colon, > 12.5 µM; in the test on SF-268 CNS, > 30.6 µM; in the test with TK-10 renal it was 18 µM; with RXF 393 renal, > 29.1 µM; in the test with U251 CNS it was 2.67 µM. For the same molecule, in the test with NCI-H460 lung, the TGI is > 17.7 µM.
In the case of `O=C1C2C(C(=O)N1O)N(Cc1ccccc1)C(=O)N2Cc1ccccc1` (stereo unspecified), the TGI with MOLT-4 leukemia, in the test with SW-620 colon, in the test with SF-268 CNS, in the test with K-562 leukemia, with HOP-92 NSCLC and in the test with TK-10 renal was > 100 µM throughout. Further, the TGI with RXF 393 renal, with U251 CNS and with NCI-H460 lung was > 100 µM each time.
